Measured values as given in the NIST ThermoML archive (doi:10.1007/s10765-015-2009-x).
Numbers after ± are expanded uncertainties.

Assay: mn = molality of the nth substance listed, in mol/kg
Settings: 101 kPa, Liquid, Pycnometric method

## Cl.N[C@@H](CCC(=O)O)C(=O)O [L-glutamic acid hydrochloride] + O
298.15 K, m1 = 0.01009
  mass density: 1000 ± 0.3 kg/m3
298.15 K, m1 = 0.02021
  mass density: 1000.9 ± 0.3 kg/m3
298.15 K, m1 = 0.02997
  mass density: 1001.6 ± 0.3 kg/m3
298.15 K, m1 = 0.03992
  mass density: 1002.3 ± 0.3 kg/m3
298.15 K, m1 = 0.05011
  mass density: 1002.9 ± 0.3 kg/m3
298.15 K, m1 = 0.06005
  mass density: 1003.6 ± 0.3 kg/m3
303.15 K, m1 = 0.01009
  mass density: 998.9 ± 0.3 kg/m3
303.15 K, m1 = 0.02021
  mass density: 999.9 ± 0.3 kg/m3
303.15 K, m1 = 0.02997
  mass density: 1000.6 ± 0.3 kg/m3
303.15 K, m1 = 0.03992
  mass density: 1001.2 ± 0.3 kg/m3
303.15 K, m1 = 0.05011
  mass density: 1001.8 ± 0.3 kg/m3
303.15 K, m1 = 0.06005
  mass density: 1002.4 ± 0.3 kg/m3
308.15 K, m1 = 0.01009
  mass density: 997.6 ± 0.3 kg/m3
308.15 K, m1 = 0.02021
  mass density: 998.7 ± 0.3 kg/m3
308.15 K, m1 = 0.02997
  mass density: 999.4 ± 0.3 kg/m3
308.15 K, m1 = 0.03992
  mass density: 1000 ± 0.3 kg/m3
308.15 K, m1 = 0.05011
  mass density: 1000.6 ± 0.3 kg/m3
308.15 K, m1 = 0.06005
  mass density: 1001.1 ± 0.3 kg/m3
313.15 K, m1 = 0.01009
  mass density: 996.1 ± 0.3 kg/m3
313.15 K, m1 = 0.02021
  mass density: 997.3 ± 0.3 kg/m3
313.15 K, m1 = 0.02997
  mass density: 998 ± 0.3 kg/m3
313.15 K, m1 = 0.03992
  mass density: 998.6 ± 0.3 kg/m3
313.15 K, m1 = 0.05011
  mass density: 999.2 ± 0.3 kg/m3
313.15 K, m1 = 0.06005
  mass density: 999.8 ± 0.3 kg/m3
